Experimental data taken from patent US12433838B2, “Liposomal formulation of bacterial lipopolysaccharide combined with a cytotoxic agent, and use thereof in anti-tumour therapy” (priority 2017, dated 2025).

Tests used:
SaOS cells = test: Apoptosis of SaOS spheroids with Lipo-LPS-activated THP-1 macrophages and/or etoposide (IncuCyte Caspase-3/7); assay type: cell-based, rat; conditions: 5 μM etoposide or macrophages stimulated 16 h with 100 ng/mL Lipo-LPS, fluorescence arbitrary units, FIG. 6
Description: The SaOS cells are […] osteosarcoma cells. This is a malignant bone tumour. These cells can be cultured according to a 3D spheroid model adapted to tumour cells.
THP-1 are human monocytic cells derived from an acute monocytic leukemia.
To perform cellular death monitoring of these SaOS cells, the fluorescent product IncuCyte® Caspase-3/7 has been used to evaluate the number of apoptosis cells.
The results are shown in FIG. 6, in fluorescence arbitrary units.

[1] = system: RL lymphoma cells (CD20+ human B lymphoma cells); test: Tumour growth monitoring in RL cells xenografted mice; assay type: in vivo, Scid CB17 mice; conditions: 46 days after the tumour graft; 30 mg/kg, one injection per week; FIG. 1
Description: During this experiment, six groups of Scid CB17 mice have been used. Each group is comprised at six mice.
Group 1=control (no treatment)

With `COc1cc([C@@H]2c3cc4c(cc3[C@@H](O[C@@H]3O[C@@H]5CO[C@@H](C)O[C@H]5[C@H](O)[C@H]3O)[C@H]3COC(=O)[C@H]23)OCO4)cc(OC)c1O` [etoposide] the “Apoptosis rate of SaOS cells with respect to the control” value (SaOS cells) was “induces cancer cell apoptosis” and the “Apoptosis rate of SaOS cells with respect to the control” value (SaOS cells; listed as epotoside) was “significantly increased with respect to the control”.
rituximab was tested, and the “Tumour volume relative to control mice” value [1] was “twice lower”.
